Patent publication US12331051B2 (priority 2021, dated 2025)

How the values were obtained:
DVS hygroscopicity = type: physicochemical; conditions: for DVS (hold at 75% RH) mass increase: crude material, 75% relative humidity, ~5 hr run time
[1] = system: primary cortical neurons (rats); experiment: In vitro dendritogenesis assay with volinanserin pre-treatment; type: cell-based, rat
Experimental: The 5-HT2A receptor plays a key role in the function of serotonergic psychedelics and their derivatives (Jaster, et al., Psychopharmacology, 2022, 239, p1665-1677.). […] The in vitro dendritogenesis assay was repeated in the presence or absence of a selective 5-HT2A antagonist volinanserin. In brief, FIG. 20A represents tracings of the cortical neurons (DIV 3) treated with volinanserin (Vol) at […]) followed by either vehicle or “E559 polymorph” (1 μM). Sholl radii are spaced 10 μm. […] FIG. 20C represents the total dendritic arbour length for neurons treated in FIG. 20A. In FIGS. 20B and 20C, violin plots represent the distribution of individual cells (n=15/treatment), while dots represent the averages per independent experiment (n=5/treatment). In this study primary cortical neurons (rats) were treated with volinanserin (0.1-1 μM), a selected 5-HT2A receptor antagonist, prior to the administration of the “polymorph HT compound” (1 μM 2-Br-LSD).

stress-naïve mice = experiment: FST and OFT with volinanserin pre-treatment; type: in vivo, mouse
Experimental: The 5-HT2A receptor plays a key role in the function of many serotonergic psychedelics and their derivatives (Jaster et al., Psychopharmacology, 2022, 239, p1665-1677.). […] To further investigate the role of the 5-HT2A receptor in the “E559 polymorph” effects in these in vivo models, the open field test and forced swim test in mice was repeated as described in Example 14, with and without volinanserin, a selective 5-HT2A antagonist, treatment. Briefly, volnanserin (0.125 mg/kg) was administered (IP injection) 1 hour prior to the administration of the “E559 polymorph” (1 mg/kg, IP) to stress-naïve mice, and forced swim test was performed 24 hours later as described in Example 14. In brief, FIG. 26A represents immobility time in the forced swim test of female mice (n=12/group) pre-treated with vehicle or volinanserin, followed by either vehicle (saline) or “E559 polymorph” (1 mg/kg). […] FIG. 26C represents distance travelled in the open field Measured 24 hours after treatment (as in FIG. 26A) in female mice (n=12). […] Horizontal lines in FIG. 26 represent the mean±standard error of the mean (S.E.M.) and asterisks indicate statistical significances.

5-HT2A receptor [2] = molecular target: T1, 5-HT2A receptor (Homo sapiens, UniProt P28223)
T1 sequence (P28223 whole entry, the tested form may be a part): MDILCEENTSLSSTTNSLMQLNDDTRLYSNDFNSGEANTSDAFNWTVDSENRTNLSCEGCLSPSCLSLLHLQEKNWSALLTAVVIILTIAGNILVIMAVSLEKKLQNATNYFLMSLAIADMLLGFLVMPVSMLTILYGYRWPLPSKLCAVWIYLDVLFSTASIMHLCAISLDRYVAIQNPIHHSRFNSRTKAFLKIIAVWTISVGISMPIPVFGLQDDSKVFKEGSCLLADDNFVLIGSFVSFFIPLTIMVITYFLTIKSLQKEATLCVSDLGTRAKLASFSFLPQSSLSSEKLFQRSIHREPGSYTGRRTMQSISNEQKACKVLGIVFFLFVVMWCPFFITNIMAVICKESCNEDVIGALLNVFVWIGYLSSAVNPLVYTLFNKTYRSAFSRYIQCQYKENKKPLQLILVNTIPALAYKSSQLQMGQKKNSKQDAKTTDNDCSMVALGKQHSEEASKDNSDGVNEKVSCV

5-HT2A receptor [3] = molecular target: T1, 5-HT2A receptor; experiment: 5-HT2A receptor internalization, NanoBit HiBit-fused 5-HT2A in HEK293T cells; type: cell-based; design: expressed in transfected cells; host or cells: HEK293T
Experimental: To assess the ability of the “E559 polymorph” to induce β-arrestin-mediated 5-HT2A receptor internalization in vitro, the loss of surface expression of 5-HT2A receptor was measured using a NanoBit N-terminal HiBit-fused 5-HT2A construct cloned in HEK293T cells (1:15 ratio 5-HT2A: β-arrestin2). In brief, cells were treated with serial dilution of test compounds for 1 hour or a specified time point.

mice = experiment: Tolerance after repeated dosing, HTR to DOI challenge; type: in vivo, mouse; conditions: IP once daily 7 days: DOI 10 mg/kg/day, E559 polymorph 3 mg/kg/day; DOI 1 mg/kg challenge 24 hours later
Experimental: To determine if repeated dosing of the “E559 polymorph” can induce tolerance in vivo, HTR experiment described in Examples 2 and 5 was repeated where mice received IP injections of vehicle, DOI (10 mg/kg/day), or the “E559 polymorph” (3 mg/kg/day; once daily for 7 consecutive days) and were then challenged with DOI (1 mg/kg) 24 hours later. Data shown in FIG. 22 are group means±standard deviation for the entire 60 minutes test session. Asterisks indicate statistical significances compared to the Vehicle control (Vehicle was saline).

[4] = molecular target: T2, Serotonin 1B receptor (5-HT1BR) (Homo sapiens, UniProt P28222); experiment: Functional assay in HEK-293 cells (cAMP); type: cell-based; conditions: Functional Assay (agonist) EC50 (nM), cAMP; ligand 5-HT
T2 construct: expressed in transfected cells; host or cells: HEK-293
T2 sequence (P28222 whole entry): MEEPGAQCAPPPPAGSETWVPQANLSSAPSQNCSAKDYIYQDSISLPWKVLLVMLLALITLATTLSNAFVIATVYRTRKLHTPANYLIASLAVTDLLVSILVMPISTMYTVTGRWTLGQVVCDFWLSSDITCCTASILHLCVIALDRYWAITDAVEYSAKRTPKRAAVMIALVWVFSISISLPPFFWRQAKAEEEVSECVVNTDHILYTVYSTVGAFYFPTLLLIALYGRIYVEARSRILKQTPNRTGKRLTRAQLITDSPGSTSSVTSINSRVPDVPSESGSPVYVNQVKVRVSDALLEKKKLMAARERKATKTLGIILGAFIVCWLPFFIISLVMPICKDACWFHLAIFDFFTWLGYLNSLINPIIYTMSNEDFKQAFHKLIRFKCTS
Experimental: (§1) Neuro-receptor binding and functional effects of the “E559 polymorph” was examined by analyzing binding affinity [Ki (nM)], functional agonist activity [EC50 (nM)], and functional antagonist activity [IC50 (nM)] against a panel of key receptors in neurophysiological disorders. Binding and functional assays were performed at “E559 polymorph” concentrations of 0.0003, 0.003, 0.01, 0.03, 0.1, 0.3, 1, and 10 μM. In binding assays, cell membrane homogenates, expressing each receptor target, were incubated with the corresponding radio-ligand in absence or presence of several concentration of the “E559 polymorph” compound. The measurement of binding affinity of the “E559 polymorph” is represented in TABLE XIII by Ki (nM) which was calculated as percent inhibition of the binding of a radioactively labeled reference ligand at each receptor. In functional assays the HEK-293 cells expressing each receptor target were suspended in buffer and distribute in microplates and incubated for 30 minutes at room temperature or 37° C. in the presence of buffer alone (basal control), the reference agonist or antagonist, or the “E559 polymorph. Following incubation, the cells were lysed and the appropriate fluorescent probe (Ca2+ flux, cAMP, or IP1) were added for 60 minutes to measure the fluorescence transfer at the appropriate wavelength using a microplate reader. The cellular agonist effect (EC50) was calculated as a percent of control response to a known reference agonist and the cellular antagonist effect (IC50) was calculated as a percent inhibition of control reference agonist response for each receptor.
(§2) The functional agonist activity [EC50 (nM), Emax], and functional antagonist activity [IC50 (nM)] of the 5R:8S stereoisomer of the “E559 polymorph” (5R:8S E558) was compared with the “E559 polymorph” (a 5R:8R stereoisomer) at selected serotonin receptors. The assays were performed as described in Example 6.

[5] = molecular target: T3, 5-HT2A receptor (5-HT2AR) (Homo sapiens, UniProt P28223); experiment: Functional assay in HEK-293 cells (IP1); type: cell-based
T3 construct: expressed in transfected cells; host or cells: HEK-293
T3 sequence (P28223 whole entry): as the sequence (P28223 whole entry, the tested form may be a part) above
Experimental: as §1, §2

[6] = molecular target: T4, Serotonin 2B receptor (5-HT2BR) (Homo sapiens, UniProt P41595); experiment: Functional assay in HEK-293 cells (IP1); type: cell-based
T4 construct: expressed in transfected cells; host or cells: HEK-293
T4 sequence (P41595 whole entry): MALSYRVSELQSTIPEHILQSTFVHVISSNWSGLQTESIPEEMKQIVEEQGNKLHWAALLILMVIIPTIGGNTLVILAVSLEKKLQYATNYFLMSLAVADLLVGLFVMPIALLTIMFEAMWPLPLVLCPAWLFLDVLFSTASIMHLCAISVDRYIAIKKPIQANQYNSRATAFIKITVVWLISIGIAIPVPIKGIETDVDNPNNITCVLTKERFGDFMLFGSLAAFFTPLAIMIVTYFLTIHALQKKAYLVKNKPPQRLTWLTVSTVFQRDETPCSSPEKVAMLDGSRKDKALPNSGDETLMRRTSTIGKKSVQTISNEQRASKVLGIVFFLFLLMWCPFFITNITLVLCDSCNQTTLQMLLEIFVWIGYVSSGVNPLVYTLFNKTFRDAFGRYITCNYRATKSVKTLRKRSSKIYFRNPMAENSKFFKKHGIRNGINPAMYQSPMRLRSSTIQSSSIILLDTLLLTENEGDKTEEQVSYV
Experimental: as §1, §2

5-HT1E = molecular target: T5, 5-HT1E (Homo sapiens, UniProt P28566); experiment: Functional assay (Arrestin); type: cell-based
T5 construct: expressed in transfected cells; host or cells: HEK-293
T5 sequence (P28566 whole entry): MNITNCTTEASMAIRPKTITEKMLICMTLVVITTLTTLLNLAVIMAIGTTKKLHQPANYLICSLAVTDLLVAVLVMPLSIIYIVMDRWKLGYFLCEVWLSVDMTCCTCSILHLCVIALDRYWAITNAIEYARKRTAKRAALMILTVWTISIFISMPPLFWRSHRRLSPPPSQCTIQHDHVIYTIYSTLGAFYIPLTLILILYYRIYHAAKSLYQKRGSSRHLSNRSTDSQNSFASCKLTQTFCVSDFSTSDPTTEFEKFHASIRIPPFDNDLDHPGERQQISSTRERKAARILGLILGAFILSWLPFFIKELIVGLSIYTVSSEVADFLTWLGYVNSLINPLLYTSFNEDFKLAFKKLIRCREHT

5-HT1F = molecular target: T6, 5-HT1F (Homo sapiens, UniProt P30939); experiment: Functional assay (cAMP); type: cell-based
T6 construct: expressed in transfected cells; host or cells: HEK-293
T6 sequence (P30939 1-366): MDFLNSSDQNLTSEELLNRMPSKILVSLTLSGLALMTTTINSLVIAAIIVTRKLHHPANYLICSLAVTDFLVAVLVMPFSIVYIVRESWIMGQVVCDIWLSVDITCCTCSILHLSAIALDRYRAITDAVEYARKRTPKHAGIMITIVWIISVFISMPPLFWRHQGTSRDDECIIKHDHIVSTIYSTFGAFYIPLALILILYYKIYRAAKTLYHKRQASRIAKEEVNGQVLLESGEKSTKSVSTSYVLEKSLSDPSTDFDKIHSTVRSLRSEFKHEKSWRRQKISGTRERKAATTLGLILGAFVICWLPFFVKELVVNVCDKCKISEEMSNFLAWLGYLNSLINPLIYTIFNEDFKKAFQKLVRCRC
Experimental: as §1, §2

5-HT6 = 5-HT6 (Homo sapiens, UniProt P50406); experiment: Functional assay (cAMP); type: cell-based; design: expressed in transfected cells; host or cells: HEK-293
Chain of 5-HT6 (P50406 whole entry): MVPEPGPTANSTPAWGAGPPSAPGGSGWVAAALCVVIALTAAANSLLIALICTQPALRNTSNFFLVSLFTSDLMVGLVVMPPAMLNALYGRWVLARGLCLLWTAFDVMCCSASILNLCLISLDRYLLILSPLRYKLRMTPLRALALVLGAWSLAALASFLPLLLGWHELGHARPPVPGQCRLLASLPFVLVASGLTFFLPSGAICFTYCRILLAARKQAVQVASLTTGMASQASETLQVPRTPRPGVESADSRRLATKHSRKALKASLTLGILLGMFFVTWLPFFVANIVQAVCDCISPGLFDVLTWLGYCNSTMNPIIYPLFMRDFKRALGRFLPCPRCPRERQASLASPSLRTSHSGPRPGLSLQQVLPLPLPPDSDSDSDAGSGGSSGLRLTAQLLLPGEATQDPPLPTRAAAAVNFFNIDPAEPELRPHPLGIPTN
Experimental: as §1, §2

[7] = cAMP, ligand 5-HT, read-out: Functional Assay (agonist) Emax

In the case of `CCN(CC)C(=O)[C@@H]1C=C2c3cccc4[nH]c(Br)c(c34)C[C@H]2N(C)C1` [E560, (5R, 8R)-2-Bromo-9,10-didehydro-N,N-diethyl-6-methylergoline-8-carboxamide hemi-L-tartrate], the “DVS (0-90-0 2 cycles) max water absorbed” value (DVS hygroscopicity; 90% RH exposure, ~24 hr run time, listed as L-Tartrate) is reported as “absorbed mad 12%”, the “DVS (hold at 75% RH) mass increase” value (DVS hygroscopicity; listed as L-Tartrate) is reported as 6.3% mass increase and the “DVS (hold at 75% RH) mass increase” value (DVS hygroscopicity; listed as L-tartrate salt) is reported as “about 6.3%”.

With `COc1cccc([C@H](O)C2CCN(CCc3ccc(F)cc3)CC2)c1OC` [volinanserin] the “effect of volinanserin on E559 polymorph induced increase in total dendrite length” value ([1]; E559 polymorph 1 μM) was “blocked the increase in total dendrite length”, the “effect of volinanserin pre-treatment on E559 polymorph (1 μM) induced dendritic arbor complexity (Sholl intersections)” value ([1]; every volinanserin concentration tested) was “blocked the effect” and the “dendritic arbor complexity, volinanserin alone” value ([1]; volinanserin followed by vehicle) was “did not change any parameters linked to dendritic arbor complexity”. For the same molecule, the “effect of volinanserin pre-treatment on E559 polymorph induced decrease in immobility in FST” value (stress-naïve mice; volinanserin 0.125 mg/kg IP 1 hour before E559 polymorph 1 mg/kg IP, female and male mice) was “blocked the decrease in immobility” and the “locomotion in the OFT” value (stress-naïve mice; volinanserin alone or with E559 polymorph, female or male mice) was “did not affect locomotion in the OFT in female or male mice”.

With `NCCc1c[nH]c2ccc(O)cc12` [5-HT, serotonin] the “β-Arrestin2 recruitment at the 5-HT2A receptor” value (5-HT2A receptor [2]) was “strong recruiters of β-Arrestin2” and the “internalization of the 5-HT2A receptor (loss of surface expression)” value (5-HT2A receptor [3]) was “potent internalization”.

For `COc1cc(CC(C)N)c(OC)cc1I` (stereo not drawn) [DOI, 2,5-Dimethoxy-4-iodoamphetamine], the “tolerance (tachyphylaxis) after repeated dosing, HTR count on DOI challenge” value (mice) was “induced a significant degree of tachyphylaxis/tolerance”, the “β-Arrestin2 recruitment at the 5-HT2A receptor” value (5-HT2A receptor [2]) was “strong recruiters of β-Arrestin2” and the “internalization of the 5-HT2A receptor (loss of surface expression)” value (5-HT2A receptor [3]) was “potent internalization”.

In the case of `CCN(CC)C(=O)[C@H]1C=C2c3cccc4[nH]c(Br)c(c34)C[C@H]2N(C)C1` [E558, (5R, 8S)-2-Bromo-9,10-didehydro-N,N-diethyl-6-methylergoline-8-carboxamide], the EC50 [4] is reported as > 10000 nM, the EC50 [5] is reported as 0.2 µM and the IC50 [5] is reported as > 10 µM. The Emax ([5]; HEK293, IP1, ligand 5-HT, read-out: Functional Assay (agonist) Emax) was 55%, the EC50 [6] was > 10 µM and the IC50 [6] was > 10 µM. The EC50 (5-HT1E) was > 10 µM, the EC50 (5-HT1F) was 3.12 µM and the Emax (5-HT1F; [7]) was 66.9%. It also gave an EC50 (5-HT6) of 0.099 µM and an Emax (5-HT6; [7]) of 71%.
